Data set [1] addresses T1, Human EDG-1 (Homo sapiens, UniProt P21453).
T1 construct: expressed in transfected cells; host or cells: CHO cells
The data set can be described thus: Agonistic activity against EDG by monitoring changes in intracellular calcium ion [Ca^2+]i concentration. The data set is classed as cell-based. To be noted: Human EDG-1 overexpressing CHO cells; read-out: EC50 (increase in intracellular calcium ion concentration). How it is done:
Human EDG-1, EDG-3, EDG-5, or EDG-8 gene overexpressing CHO cells were cultured in Ham's F12 medium (manufactured by GibcoBRL) containing 10% FBS (fetal bovine serum), penicillin/streptomycin, and blasticidin (5 μg/ml). The cultured cells were incubated in a 5 μM Fura2-AM solution (Ham's F12 medium containing 10% of FBS, 20 mM HEPES buffer (pH7.4), and 2.5 mM probenecid) at 37° C. for 60 minutes. After washing once with Hanks solution containing 20 mM HEPES buffer (pH7.4) and 2.5 mM probenecid, the plate was soaked in the same solution. Then, the plate was set on a fluorescent drug screening system (FDSS 6000; Hamamatsu Photonics K. K.) and the intracellular calcium ion concentration was measured without stimulation for 30 seconds. A test compound (final concentration: 1 nM to 10 μM, dimethylsulfoxide (DMSO) solution) was added and S1P (final concentration: 100 nM) was added 5 minutes thereafter. Then, the increase in the intracellular calcium ion concentration was measured before and after the addition of S1P at intervals of 3 seconds (excitation wavelength: 340 nm and 380 nm, fluorescence wavelength: 500 nm).
The agonistic activity of the compound against each EDG was determined by using the peak value due to S1P-stimulation in a well containing DMSO as a substitute for the evaluated compound as a control value (A), comparing the value […] the addition of the evaluated compound with the increased value (B) in the fluorescent ratio after the addition, and calculating the increase ratio (%) in the intracellular calcium ion [Ca^2+]i concentration as: increase ratio (%)=(B/A)×100. Increase ratios of the compound at individual concentrations were determined and the EC50 value was calculated.

Data set [2] relates to lymphocyte in blood. The data set can be described thus: Counting the number of lymphocyte in blood after oral administration. The data set is classed as in vivo, male BALB/c mice or male Sprague-Dawley rats. To be noted: Mus musculus, 24 hours after the administration, read-out: ED50 (dose required for lowering the blood cell count to 50%). On the procedure:
Test compounds were orally administered to male BALB/c mice or male Sprague-Dawley rats (Charles River Laboratories, Japan, Inc., 6-week-old at the time of use). 4 to 72 hours after the administration, the blood was collected from the aorta abdominalis under ether anesthesia. The number of the total leucocyte count, the lymphocyte count, the neutrophil count, the erythrocyte count, the platelet count in blood and the hematocrit value were measured with a multipurpose automatic blood cell counter (SF-3000, manufactured by Sysmex Corporation). Evaluation was made by setting the average blood cell count in a vehicle-administered group (vehicle group) as 100% and calculating the percentage of vehicle from the average blood cell count of each test compound-administered group.

For data set [3], the system named is experimental allergic encephalomyelitis. In words: Experimental allergic encephalomyelitis (EAE) model, Case 1: administration from the day of sensitization. The data set is classed as in vivo, Female LEW/CrlCrlj rats. To be noted: from the day of sensitization to Day 19. How it is done: (§1) Killed Mycobacterium tuberculosis (M. tuberculosis H37 Ra, Difco, Cat No. 231141) was suspended in distilled water for injection to dissolve MBP (Myelin basic protein, SIGMA, Cat No. M-2295) (Killed Mycobacteriumtuberculosis: 1000 μg/mL, MBP: 60 μg/mL). This solution was mixed with an equivalent amount of FCA (Freund Complete Adjuvant, CHEMICON, Cat No. AR001) to thereby prepare an emulsion. Female LEW/CrlCrlj rats (Charles River Laboratories, Japan, Inc., 6-week-old at the time of purchase, 7-week-old at the time of sensitization) were antigen-sensitized by a single subcutaneous injection (0.1 mL/rat) of the emulsion in the right foot pad under slight ether anesthesia, thereby inducing the symptoms of experimental allergic encephalomyelitis. The day of sensitization was defined as Day 0.
The EAE symptoms of the rats were observed every day from Day 8 to Day 20, and were evaluated based on the following criteria: Tail relaxation: 1 point, Incomplete paralysis of hind legs: 1 point, Complete paralysis of hind legs: another 1 point, and Incontinentia: 1 point. The maximum score was 4 points. Death was 5 points.
Using a 0.5% MC solution (0.5 w/v % Methyl Cellulose 400cP Solution, Wako Pure Chemical Industries, Ltd., Cat No. 133-14255) as a vehicle, the test compound was forcibly administered orally in an amount of 5 mL/kg once a day from […] the day of sensitization to Day 19. To a control group, the same amount of 0.5% MC solution was forcibly administered orally once a day for the same period. The body weight was measured every day from Day 0 and the dose was determined based on the body weight of each day.

Data set [4] concerns heart rate. The data set can be described thus: Evaluation of cardiotoxicity (bradycardia). The data set is classed as in vivo. To be noted: rabbits, intravenously administered, dose of 0.01 mg/kg. From the text: A catheter was inserted into the jugular vein and carotid artery (or the femoral vein and femoral artery) of mammals (e.g., SD rat and a rabbit). The tip of the arterial cannula was connected to a pressure transducer (DX-100, manufactured by NIHON KOHDEN CORP.), thereby measuring blood pressure through a strain pressure amplifier (AP-641G, manufactured by NIHON KOHDEN CORP.) and measuring heart rate through an instantaneous heart rate measuring unit (AT-601G, manufactured by NIHON KOHDEN CORP.), respectively. Alternatively, heart rate was measured with an electrocardiogram. Under anesthesia or under awareness after arousal was induced, the test compound was administered intravenously or administered orally. Then, changes in blood pressure and heart rate were measured.

Data set [5] deals with experimental allergic encephalomyelitis. In words: Experimental allergic encephalomyelitis (EAE) model, Case 2: administration from immediately before development of symptoms. The note with it: oral dose of 0.3 mg/kg once a day, from Day 9 to Day 19. The data set is classed as in vivo, Female LEW/CrlCrlj rats. How it is done:
as §1, with “Mycobacterium tuberculosis:” for “Mycobacteriumtuberculosis:”, “The day of sensitization was defined as Day 0.” left out
The EAE symptoms of the rats were observed every day from Day 7 to Day 20, and evaluated based on the following criteria: Tail relaxation: 1 point, Incomplete paralysis of hind legs: 1 point, Complete paralysis of hind legs: another 1 point, and Incontinentia: 1 point. […]
Using 0.5% MC solution (0.5 w/v % Methyl Cellulose 400cP Solution, Wako Pure Chemical Industries, Ltd., Cat No. 133-14255) as a vehicle, the test compound was forcibly administered orally in an amount of 5 mL/kg once a day from Day 9 […] sensitization to Day 19. […] The body weight was measured every day from Day 9 and the dose was determined based on the body weight of each day.

Where [6] appears, read: oral dose of 0.3 mg/kg once a day.

Structures can show the parent of a compound that is named as a salt.

T1 sequence (P21453 whole entry): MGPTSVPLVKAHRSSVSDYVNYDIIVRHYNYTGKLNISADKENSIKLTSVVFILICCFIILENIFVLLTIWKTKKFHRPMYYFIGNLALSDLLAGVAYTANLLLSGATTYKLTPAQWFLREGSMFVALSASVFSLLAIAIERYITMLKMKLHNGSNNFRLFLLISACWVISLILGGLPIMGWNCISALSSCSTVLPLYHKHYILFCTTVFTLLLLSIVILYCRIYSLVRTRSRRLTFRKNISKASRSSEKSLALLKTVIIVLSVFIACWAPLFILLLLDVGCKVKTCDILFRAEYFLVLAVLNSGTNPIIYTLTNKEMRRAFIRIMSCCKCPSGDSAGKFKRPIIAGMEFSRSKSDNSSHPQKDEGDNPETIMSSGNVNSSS

By melting point is commonly meant the temperature of the solid-liquid transition. In the case of `CC1=C(CN2CC(C(=O)O)C2)CCc2cc(OCCCc3ccc(Cl)cc3)ccc21` [Example 7-1, 1-({6-[3-(4-chlorophenyl)propoxy]-1-methyl-3,4-dihydro-2-naphthalenyl}methyl)-3-azetidinecarboxylic acid], the melting point was in the range of 165.4 to 166.9 °C.
Same read-out and setting: the same measure for `CC1=C(CN2CC(C(=O)O)C2)CCc2cc(OC[C@@H](C)Cc3ccc(F)cc3)ccc21` [Example 7-4, 1-[(6-{[(2S)-3-(4-fluorophenyl)-2-methylpropyl]oxy}-1-methyl-3,4-dihydro-2-naphthalenyl)methyl]-3-azetidinecarboxylic acid]: 142.5 to 143.6 °C.
Compound `CC1=C(CN2CC(C(=O)O)C2)CCc2cc(OC[C@@H](C)Cc3ccc(Cl)cc3)ccc21` [Example 7-10, 1-[(6-{[(2S)-3-(4-chlorophenyl)-2-methylpropyl]oxy}-1-methyl-3,4-dihydro-2-naphthalenyl)methyl]-3-azetidinecarboxylic acid] registered a melting point of 148.6 to 148.9 °C.
`CC(C)Cc1ccc(-c2nc(-c3ccc4c(c3)CCN(CCC(=O)O)C4)no2)cc1` [Example 13-4, 3-[6-[5-(4-isobutylphenyl)-1,2,4-oxadiazol-3-yl]-3,4-dihydro-2(1H)-isoquinolinyl]propanoic acid trifluoroacetate]: the EC50 in data set [1] turned out to be 41 nM.
The same measure, in the same setting: the value for `O=C(O)CCN1CCc2c([nH]c3cc(OCCCc4ccccc4)ccc23)C1` [Example 18, 3-[7-(3-phenylpropoxy)-1,3,4,9-tetrahydro-2H-β-carbolin-2-yl]propanoic acid trifluoroacetate] was 662 nM.
The ED50 is the dose that gives a 50% effect, or the effect in half of the subjects. With `O=C(O)C1CN(CC2=C(Cl)c3ccc(OCCCC4CCCCC4)cc3CC2)C1` [Example 27-7, 1-{[1-chloro-6-(3-cyclohexylpropoxy)-3,4-dihydronaphthalen-2-yl]methyl}azetidine-3-carboxylic acid], the EC50 in data set [1] turned out to be 0.7 nM. The ED50 in data set [2] was 1.6 mg/kg.
As for `O=C(O)CCN1CC=C(c2ccc(OCCCc3ccc(Cl)cc3)cc2)CC1` [Example 29-1, 3-[4-{4-[3-(4-chlorophenyl)propoxy]phenyl}-3,6-dihydropyridin-1(2H)-yl]propanoic acid trifluoroacetate], the EC50 in data set [1] is 133 nM.
As for `CCCc1ccc(COc2ccc3c(c2)CCC(CN2CC(C(=O)O)C2)=C3C)c(OC)c1` [Example 37, 1-({6-[(2-methoxy-4-propylbenzyl)oxy]-1-methyl-3,4-dihydro-2-naphthalenyl}methyl)-3-azetidinecarboxylic acid], the “inhibition of the development of EAE symptoms” value in data set [3] (oral dose of 0.1 mg/kg once a day) is “almost completely inhibited”; in data set [3] (setting [6]), “completely inhibited”; in data set [5] it was “almost completely inhibited”. Besides, in data set [1], the EC50 stood at 1 nM. Besides, the ED50 in data set [2] was 0.029 mg/kg. In data set [4], the “decrease of heart rate” value is given as ≤ 20%.
As for `CC1=C(CN2CC(C(=O)O)C2)CCc2cc(OCc3ccc(C(F)(F)F)cc3C(F)(F)F)ccc21` [Example 37-5, 1-[(6-{[2,4-bis(trifluoromethyl)benzyl]oxy}-1-methyl-3,4-dihydro-2-naphthalenyl)methyl]-3-azetidinecarboxylic acid], the “inhibition of the development of EAE symptoms” value is given as “almost completely inhibited” in data set [3] (setting [6]) and “had the effect of inhibiting the development of symptoms” in data set [5].
Regarding `CCCc1ccc(COc2ccc3c(c2)CCC(CN2CC(C(=O)O)C2)=C3Cl)c(OC)c1` [Example 37-6, 1-({1-chloro-6-[(2-methoxy-4-propylbenzyl)oxy]-3,4-dihydro-2-naphthalenyl}methyl)-3-azetidinecarboxylic acid], in data set [1], the EC50 turned out to be 0.7 nM.

Values taken from patent US7906549B2, “Aminocarboxylic acid derivative and medicinal use thereof” (Ono Pharmaceutical Co., Ltd., priority 2004, dated 2011).
